Source: ChEMBL document CHEMBL1201862, “PubChem BioAssay data set” (2004)
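Following 48 hours of exposure in 96-well plates, responses at five concentrations were used to interpolate endpoints linearly. GI50: concentration for 50% inhibition of growth.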 Activity calls are given as the source filed them. No stated cut-off is given here; in the data, active = GI50 up to about 1.1 µM and inactive = higher. Where a SMILES comes first, the peptide text is derived from it. [ ]: non-standard residue; d: D form. The star is where a group is joined. Phe(4-NO2) = N[CH](Cc1ccc([N+](=O)[O-])cc1)C(=O)O; Cbz = O=C(OCc1ccccc1)*

How the values were obtained:
Test in all cases: inhibition of tumour cell growth, NCI panel, 48 h
Malme-3M = test system: Malme-3M
Hs-578T = test system: Hs-578T
SK-MEL-5 = test system: SK-MEL-5
HL-60 = test system: HL-60
RPMI-8226 = test system: RPMI-8226
SF-268 = test system: SF-268
SK-MEL-28 = test system: SK-MEL-28
ACHN = test system: ACHN
U-251 = test system: U-251
RXF 393 = test system: RXF 393
SW-620 = test system: SW-620
NCI/ADR-RES = test system: NCI/ADR-RES
MDA-MB-231 = test system: MDA-MB-231
HOP-62 = test system: HOP-62
SN12C = test system: SN12C
LOX IMVI = test system: LOX IMVI
HOP-92 = test system: HOP-92
OVCAR-8 = test system: OVCAR-8
EKVX = test system: EKVX
A498 = test system: A498

| SMILES | GI50 (Malme-3M) | GI50 (Hs-578T) | GI50 (SK-MEL-5) | GI50 (HL-60) | GI50 (RPMI-8226) | GI50 (SF-268) | GI50 (SK-MEL-28) | GI50 (ACHN) | GI50 (U-251) | GI50 (RXF 393) | GI50 (SW-620) | GI50 (NCI/ADR-RES) | GI50 (MDA-MB-231) | GI50 (HOP-62) | GI50 (SN12C) | GI50 (LOX IMVI) | GI50 (HOP-92) | GI50 (OVCAR-8) | GI50 (EKVX) | GI50 (A498) |
| --- | --- | --- | --- | --- | --- | --- | --- | --- | --- | --- | --- | --- | --- | --- | --- | --- | --- | --- | --- | --- |
| [N-]=[N+]=Nc1c(Cc2ccccc2)c(=O)oc2ccccc12 | 38.3 µM (inactive) | 19.1 µM (inactive) | 2.67 µM (inactive) | 90.8 µM (inactive) | 33.2 µM (inactive) | 25.9 µM (inactive) | > 10 µM (inactive) | 38.2 µM (inactive) | 24.4 µM (inactive) | 16.7 µM (inactive) | 14.8 µM (inactive) | 27.6 µM (inactive) | 39.3 µM (inactive) | 20.7 µM (inactive) | > 10 µM (inactive) | 14.2 µM (inactive) | – | – | – | – |
| CCCCCCOP(=O)(OCCCCCC)OC(C(=O)OC)C(F)(F)F (stereo unspecified) | > 100 µM (inactive) | > 100 µM (inactive) | > 100 µM (inactive) | > 100 µM (inactive) | > 100 µM (inactive) | > 100 µM (inactive) | > 100 µM (inactive) | > 100 µM (inactive) | > 100 µM (inactive) | – | > 100 µM (inactive) | > 100 µM (inactive) | > 100 µM (inactive) | > 100 µM (inactive) | > 100 µM (inactive) | > 100 µM (inactive) | > 100 µM (inactive) | > 100 µM (inactive) | > 100 µM (inactive) | – |
| CC1C(c2ccc3c(c2)OCO3)c2cc3c(cc2OC1N1CCCC1)OCO3 (stereo unspecified) | – | 10.6 µM (inactive) | 17.7 µM (inactive) | – | 29.2 µM (inactive) | 23.1 µM (inactive) | 37.1 µM (inactive) | 29.3 µM (inactive) | – | – | 32.5 µM (inactive) | 29.2 µM (inactive) | – | 49.5 µM (inactive) | 39.6 µM (inactive) | 34.8 µM (inactive) | – | 35.8 µM (inactive) | 37.9 µM (inactive) | – |
| CN(C)c1ccc(/C=C(\C#N)c2nc(-c3cc4ccccc4oc3=O)cs2)cc1 | 4.65 µM (inactive) | 13.7 µM (inactive) | > 50 µM (inactive) | > 50 µM (inactive) | > 50 µM (inactive) | 21 µM (inactive) | > 50 µM (inactive) | 13.3 µM (inactive) | 6.89 µM (inactive) | 12.3 µM (inactive) | > 50 µM (inactive) | 35.5 µM (inactive) | 11.6 µM (inactive) | 5.93 µM (inactive) | > 50 µM (inactive) | > 50 µM (inactive) | 5.12 µM (inactive) | 20.3 µM (inactive) | > 50 µM (inactive) | – |
| CCN(CCCN(CC)C(=O)Nc1ccccc1)C(=O)Nc1ccccc1 | 66.1 µM (inactive) | – | > 100 µM (inactive) | > 100 µM (inactive) | > 100 µM (inactive) | – | > 100 µM (inactive) | > 100 µM (inactive) | > 100 µM (inactive) | > 100 µM (inactive) | > 100 µM (inactive) | > 100 µM (inactive) | > 100 µM (inactive) | > 100 µM (inactive) | > 100 µM (inactive) | > 100 µM (inactive) | > 100 µM (inactive) | > 100 µM (inactive) | > 100 µM (inactive) | – |
| COc1ccc(C(=O)/C=C/c2ccc(OCCCOc3ccc(/C=C/C(=O)c4ccc(OC)c(OC)c4)cc3)cc2)cc1OC | – | > 100 µM (inactive) | > 100 µM (inactive) | > 100 µM (inactive) | > 100 µM (inactive) | > 100 µM (inactive) | > 100 µM (inactive) | > 100 µM (inactive) | > 100 µM (inactive) | > 100 µM (inactive) | > 100 µM (inactive) | > 100 µM (inactive) | > 100 µM (inactive) | > 100 µM (inactive) | > 100 µM (inactive) | – | – | > 100 µM (inactive) | > 100 µM (inactive) | – |
| COc1cc(/C=N/n2c(C)n[nH]c2=O)cc(OC)c1OC | > 100 µM (inactive) | 0.583 µM (active) | – | – | – | > 100 µM (inactive) | > 100 µM (inactive) | > 100 µM (inactive) | > 100 µM (inactive) | 27.4 µM (inactive) | > 100 µM (inactive) | > 100 µM (inactive) | 57.5 µM (inactive) | > 100 µM (inactive) | > 100 µM (inactive) | – | – | > 100 µM (inactive) | 32.6 µM (inactive) | 23.4 µM (inactive) |
| Cc1ccc(S(=O)(=O)n2ccc(-c3ccc4ccn(S(=O)(=O)c5ccc(C)cc5)c4c3)c2)cc1 | > 100 µM (inactive) | 27.9 µM (inactive) | > 100 µM (inactive) | > 100 µM (inactive) | > 100 µM (inactive) | > 100 µM (inactive) | – | > 100 µM (inactive) | > 100 µM (inactive) | 12.9 µM (inactive) | > 100 µM (inactive) | > 100 µM (inactive) | > 100 µM (inactive) | > 100 µM (inactive) | > 100 µM (inactive) | > 100 µM (inactive) | – | > 100 µM (inactive) | > 100 µM (inactive) | > 100 µM (inactive) |
| CCOC(=O)C(C)(Cc1ccc(O)cn1)NC(=O)c1ccccc1 (stereo unspecified) | > 100 µM (inactive) | > 100 µM (inactive) | > 100 µM (inactive) | > 100 µM (inactive) | > 100 µM (inactive) | > 100 µM (inactive) | > 100 µM (inactive) | > 100 µM (inactive) | > 100 µM (inactive) | > 100 µM (inactive) | > 100 µM (inactive) | > 100 µM (inactive) | > 100 µM (inactive) | > 100 µM (inactive) | – | > 100 µM (inactive) | 47 µM (inactive) | > 100 µM (inactive) | > 100 µM (inactive) | – |
| O=c1cc(/N=N\c2ccc(Br)cc2)[nH]c(=S)[nH]1 | 16.4 µM (inactive) | 32.7 µM (inactive) | 57.1 µM (inactive) | 19.3 µM (inactive) | 15.9 µM (inactive) | 39.3 µM (inactive) | 20.4 µM (inactive) | 15.9 µM (inactive) | 36.4 µM (inactive) | 16.9 µM (inactive) | 27.2 µM (inactive) | 61.2 µM (inactive) | 17.6 µM (inactive) | > 100 µM (inactive) | 96.4 µM (inactive) | 15.3 µM (inactive) | 19.5 µM (inactive) | 23.1 µM (inactive) | 19.8 µM (inactive) | – |
| COc1ccc(-c2c3c(n(C4OC(CO)C(O)C(O)C4O)c(=S)c2C#N)CCC3)cc1 (stereo unspecified) | 57.8 µM (inactive) | 38.7 µM (inactive) | 14.8 µM (inactive) | 34.7 µM (inactive) | 49.5 µM (inactive) | 62.8 µM (inactive) | 35.1 µM (inactive) | 38.5 µM (inactive) | 37.1 µM (inactive) | 22.4 µM (inactive) | 71.9 µM (inactive) | > 100 µM (inactive) | > 100 µM (inactive) | 40 µM (inactive) | 37 µM (inactive) | 42.1 µM (inactive) | 28.6 µM (inactive) | – | – | – |
| O=C(CSc1nc2ccc(I)cc2c(=O)n1Cc1ccccc1)NN1C(=O)CCC1=O | – | – | 48.4 µM (inactive) | 28.6 µM (inactive) | 37.7 µM (inactive) | 39.1 µM (inactive) | 61.4 µM (inactive) | 18.2 µM (inactive) | 41.2 µM (inactive) | 25.5 µM (inactive) | 75.2 µM (inactive) | 37.2 µM (inactive) | 32.4 µM (inactive) | 54.5 µM (inactive) | 35.7 µM (inactive) | 59.3 µM (inactive) | 25.5 µM (inactive) | 37.6 µM (inactive) | 34.1 µM (inactive) | – |
| COc1ccc(OC)c2c(=O)cc(-c3ccccc3)[nH]c12 | > 100 µM (inactive) | > 100 µM (inactive) | > 10 µM (inactive) | > 100 µM (inactive) | > 100 µM (inactive) | > 100 µM (inactive) | > 100 µM (inactive) | > 100 µM (inactive) | > 100 µM (inactive) | > 100 µM (inactive) | > 100 µM (inactive) | > 100 µM (inactive) | > 100 µM (inactive) | > 100 µM (inactive) | > 100 µM (inactive) | > 100 µM (inactive) | – | > 100 µM (inactive) | > 100 µM (inactive) | > 100 µM (inactive) |
| Cc1ccc(C2SCC(=O)N2NC(=O)c2ccncc2)s1 (stereo unspecified) | > 100 µM (inactive) | – | > 100 µM (inactive) | – | > 100 µM (inactive) | > 100 µM (inactive) | > 100 µM (inactive) | > 100 µM (inactive) | > 100 µM (inactive) | > 100 µM (inactive) | > 100 µM (inactive) | > 100 µM (inactive) | > 100 µM (inactive) | > 100 µM (inactive) | > 100 µM (inactive) | > 100 µM (inactive) | > 100 µM (inactive) | > 100 µM (inactive) | > 100 µM (inactive) | > 100 µM (inactive) |
| CCOC(=O)CCC(NC(=O)OCc1ccccc1)C(=O)NC(CCC(=O)OCC)C(=O)NC(Cc1ccc([N+](=O)[O-])cc1)C(=O)NC(CCC(=O)OCC)C(=O)NC(CCC(=O)OCC)C(=O)OCC (stereo unspecified) (Cbz-E(OEt)E(OEt)[Phe(4-NO2)]E(OEt)E(OEt)-OEt; configuration not given here) | > 100 µM (inactive) | > 100 µM (inactive) | > 100 µM (inactive) | – | > 100 µM (inactive) | – | > 100 µM (inactive) | > 100 µM (inactive) | > 100 µM (inactive) | > 100 µM (inactive) | > 100 µM (inactive) | > 100 µM (inactive) | > 100 µM (inactive) | > 100 µM (inactive) | > 100 µM (inactive) | > 100 µM (inactive) | – | > 100 µM (inactive) | > 100 µM (inactive) | – |
